Data from patent publication US20010039258A1, “Active agent transport systems” (Emisphere Technologies, Inc., priority 1990, published 2001).
Read-outs that look alike come from different tables or passages of the source. One block for each molecule: values may come before it.

What was measured:
[1] = DSC of heparin, effect of pH; type: physicochemical
Method: All thermograms were performed on a Microcal MC-2 scanning calorimeter equipped with the DA2 data acquisition system operated in the upscale mode at 1° C./min (up to 90° C.), and data points were collected at 20 second intervals. All scans were initiated at least 20 degrees below the observed transitions for the active agent. All thermograms were corrected for baseline subtraction and normalized for the concentration of macromolecule. According to the methods of the Johns Hopkins Biocalorimetry Center, See, for example, Ramsay et al. Biochemistry (1990) 29:8677-8693; Schon et al. Biochemistry (1989) 28:5019-5024 (1990) 29: 781-788. […]
(§1) Thermograms were corrected by subtraction of a heparin 0.05M NaCl-phosphate buffer blank, but an individual blank was not used for each NaCl concentration.

[2] = DSC of heparin, effect of guanidine hydrochloride; type: physicochemical
Method: (§2) Scanning calorimetry was performed using 5 mg 0.83 mM porcine insulin (MW 6,000) per mL in 50 mM phosphate buffer, pH 7.5. All thermograms were performed on a Microcal MC-2 scanning calorimeter equipped with the DA2 data acquisition system operated in the upscale mode at 1° C./min (up to 90° C.), and data points were collected at 20 second intervals. All scans were initiated at least 20 degrees below the observed transitions for the active agent. All thermograms were corrected for baseline subtraction and normalized for the concentration of macromolecule. According to the methods of the Johns Hopkins Biocalorimetry Center, See, for example, Ramsay et al. Biochemistry (1990) 29:8677-8693; Schon et al. Biochemistry (1989) 28:5019-5024 (1990) 29: 781-788.
DSC thermograms of heparin at pH 5.0 were conducted according to the method of Example 9 using pH, GuHCl, and ionic strength as perturbants.
as §1

[3] = DSC of heparin, effect of ionic strength; type: physicochemical; details: pH 7.0
Method: as §2, with “781-788. […]” for “781-788.”
as §1

α-interferon [4] = target: T1, α-interferon (Homo sapiens, UniProt P01563); assay: Perturbant binding DSC with α-interferon; details: α-interferon 0.64 mg/ml, pH 7.2
T1 construct: purchased Schering Plough Corp
T1 sequence (P01563 24-188): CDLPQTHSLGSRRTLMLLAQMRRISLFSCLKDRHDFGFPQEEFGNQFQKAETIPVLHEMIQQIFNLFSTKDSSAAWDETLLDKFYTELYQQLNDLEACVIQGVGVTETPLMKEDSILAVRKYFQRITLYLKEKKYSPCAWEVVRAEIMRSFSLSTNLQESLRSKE
Method: Perturbant binding DSC was conducted using 20 mM NaPhosphate buffer at pH 7.2. Dry perturbant was weighed out to make perturbant stock solutions. α-interferon stock was diluted in the buffer. α-interferon solution was not dialyzed prior to experiments for the purpose of having the same active concentration for the whole set.
DSC thermograms were generated with α-interferon at a concentration of 0.64 mg/ml and a perturbant (phenylsulfonyl-para-aminobenzoic acid purified to >98% (as determined by reverse phase chromatography prior to generation of the spectra)) at perturbant concentrations of 5, 10, 25 and 100 mg/ml. DSC was conducted on a DASM-4 differential scanning calorimeter interfaced to an IBM PC for automatic collection of the data. The scanning rate was 60° C./h.
The method of Example 19 was followed substituting α-interferon without perturbant. Results are illustrated in Table 9 below and FIG. 10. […]

α-interferon [5] = target: T1, α-interferon; assay: Isothermal titration calorimetry of perturbant complexing with α-interferon; type: binding; details: 25° C.; for result of complexing with α-interferon at pH 3: 20 mM NaAc; for n (1), # of complexed perturbant molecules: curve fitting, multiple independent sites
Method: Isothermal titration calorimetry of perturbant complexing with α-interferon was performed at 25° C. at two different pH's. The buffers used were 20 mM NaPhosphate for pH 7.2 and 20 mM NaAc for pH 3.0. α-interferon solution was dialyzed before the experiment to reach the appropriate pH. Dry perturbants were weighed and diluted in dialysate.
ITC was conducted on a MicroCal OMEGA titration calorimeter (MicroCal Inc.—Northampton, Mass.). Data points were collected every 2 seconds, without subsequent filtering. α-interferon solution placed in 1.3625 mL cell was titrated using a 250 μL syringe filled with concentrated perturbant solution. A certain amount of titrant was injected every 3-5 minutes for up to 55 injections.
A reference experiment to correct for the heat of mixing of two solutions, was performed identically except that the reaction cell was filled with buffer without active agent.
Analysis of the data was performed using the software developed at the Johns Hopkins University Biocalorimetry Center.
The titration at pH 7.2 included 53 injections of 2 μL of the perturbant of Example 30 (50 mg/mL=191.6 mM (MW 261)) and α-interferon (1.3 mg/mL=0.067 mM (MW 19400)).
The titration at pH 7.2 included two runs of […] each of 5 μL of perturbant (50 mg/mL=181 mM (FW 277)) and α-interferon (2.31 mg/mL=0.119 mM, (MW 19400)).
ITC was performed according to the method of Example 24 with 40 injections of 5 μL of the perturbant benzoyl para-amino phenylbutyric acid (7.5 mg/mL=24.59 mM, (FW 305)) and α-interferon (2.5 mg/mL=0.129 mM, (MW 19400)).

rhGH = rhGH (Homo sapiens, UniProt P01241); assay: Isothermal titration calorimetry of rhGH with perturbants; type: binding; details: 30° C.
rhGH, sequence (P01241 27-217): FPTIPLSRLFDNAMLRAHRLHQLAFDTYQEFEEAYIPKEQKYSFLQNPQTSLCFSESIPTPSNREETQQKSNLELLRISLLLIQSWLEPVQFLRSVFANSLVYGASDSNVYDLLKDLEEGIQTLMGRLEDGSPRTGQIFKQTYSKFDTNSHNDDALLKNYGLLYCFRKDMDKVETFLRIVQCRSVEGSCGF
Method: The ability of rhGh to complex with various perturbants was assessed by ITC using a Microcal Omega titrator, usually equilibrated at 30° C. The sample cell of the calorimeter was filled with degassed rhGH (usually at 0.25 mM) prepared in 50 mM phosphate buffer, pH 7.5 or 4.0. The perturbant (cyclohexanoyl chloride modified L-tyrosin (a), salicyloyl modified L-phenylalanine (b), or phenylsulfonyl-para-amino benzoic acid (c)) was then placed in the dropping syringe at 1 mM (for pH 7.5) and 2.5 mM, (for pH 4.0). Twenty to twenty-five 10 μl injections were made into rapidly mixing (400 rpm) solution with 2 minute intervals between injections.
Initial concentration of perturbant placed in the calorimeter sample cell assumed a formula weight of 200 for each perturbant. The pH of each solution was checked after dissolution, but no adjustments of the pH were required. All experiments were performed at 30° C. Initial concentration of rhGh placed in the dropping syringe assumed a molecular weight of 20,000 for rhGh. The pH of each solution was checked after dissolution, but no adjustment of the pH was required.
The heats of reaction were determined by integration of the observed peaks. To correct for heat of mixing and dilution, a control experiment was also performed under identical conditions where aliquots of the test perturbant or rhGh were added to buffer solution only.

Molecule: O=C(O)c1ccc(NS(=O)(=O)c2ccccc2)cc1 [perturbant of Example 19, phenylsulfonyl-para-aminobenzoic acid]
Tm of α-interferon (α-interferon [4]; perturbant 5 mg/ml): 64.37 °C | ΔH of α-interferon (α-interferon [4]; perturbant 5 mg/ml): 60.151 kcal/mol | Tm of α-interferon (α-interferon [4]; perturbant 10 mg/ml): 62.3 °C | ΔH of α-interferon (α-interferon [4]; perturbant 10 mg/ml): 53.161 kcal/mol | Tm of α-interferon (α-interferon [4]; perturbant 25 mg/ml): 58.15 °C | ΔH of α-interferon (α-interferon [4]; perturbant 25 mg/ml): 35.393 kcal/mol | Tm of α-interferon (α-interferon [4]; perturbant 100 mg/ml): 46.18 °C | ΔH of α-interferon (α-interferon [4]; perturbant 100 mg/ml): 5.4393 kcal/mol | result of complexing with α-interferon at pH 3 (α-interferon [5]): precipitation of the complex out of the solution | log 10 Ka (1), Ka=association constant (α-interferon [5]; pH 7.2): 2.82 | ΔH (1) (α-interferon [5]; pH 7.2): −114.587 cal/Mole perturbant | n (1), # of complexed perturbant molecules (α-interferon [5]; pH 7.2): 55.12 | Kd (rhGH; pH 4.0): 0.0267 µM | ΔH (rhGH; pH 4.0): -1.2 kcal/mol | ΔS (rhGH; pH 4.0): −30.0 eu | Kd (rhGH; pH 7.5): 0.00111 µM | ΔH (rhGH; pH 7.5): +0.8 kcal/mol | ΔS (rhGH; pH 7.5): +44.0 eu

Molecule: cyclohexanoyl chloride modified L-tyrosine
Kd (rhGH; pH 4.0): 78.1 µM | ΔH (rhGH; pH 4.0): -1.5 kcal/mol | ΔS (rhGH; pH 4.0): −5.6 eu | Kd (rhGH; pH 7.5): 98.8 µM | ΔH (rhGH; pH 7.5): +1.4 kcal/mol | ΔS (rhGH; pH 7.5): +23.5 eu

Next, values leading:

ΔH ([1]; pH 6.0): 232.1 kcal/mol | ΔHvH ([1]; pH 6.0): 13.8 kcal/mol | Tm (Cp, max) ([1]; pH 6.0, 20 μg/ml in 50 mM phosphate): 62.5 °C | Tm (Cp, max) ([1]; pH 6.5, (a) domain): 62.7 °C | ΔH ([1]; pH 6.5, (a) domain): 213.9 kcal/mol | Tm (Cp, max) ([1]; pH 6.5, (b) domain): 71.8 °C | ΔH ([1]; pH 6.5, (b) domain): 751.9 kcal/mol | ΔHvH ([1]; pH 6.5, printed in line (b)): 56.8 kcal/mol | Tm (Cp, max) ([1]; pH 7.0, (a) domain): 47.1 °C | ΔH ([1]; pH 7.0, (a) domain): 187.1 kcal/mol | Tm (Cp, max) ([1]; pH 7.0, (b) domain): 72.9 °C | ΔH ([1]; pH 7.0, (b) domain): 136.4 kcal/mol | ΔHvH ([1]; pH 7.0, printed in line (b)): 27.6 kcal/mol | Tm (Cp, max) ([1]; pH 7.5): 66.2 °C | ΔH ([1]; pH 7.5): 499.4 kcal/mol | ΔHvH ([1]; pH 7.5): 83.8 kcal/mol | Tm (Cp, max) ([2]; 0.5M GuHCl): 50.5 °C | ΔH ([2]; 0.5M GuHCl): 287.3 kcal/mol | ΔHvH ([2]; 0.5M GuHCl): 170.9 kcal/mol | Tm (Cp, max) ([2]; 1.0M GuHCl): 60.5 °C | ΔH ([2]; 1.0M GuHCl): 415.0 kcal/mol | ΔHvH ([2]; 1.0M GuHCl): 97.1 kcal/mol | ΔH ([2]; 1.5M GuHCl): 1716.5 kcal/mol | ΔHvH ([2]; 1.5M GuHCl): 24.3 kcal/mol | ΔH ([2]; 2.0M GuHCl): 2533.7 kcal/mol | ΔHvH ([2]; 2.0M GuHCl): 19.2 kcal/mol | ΔH ([2]; no GuHCl): 499.4 kcal/mol | ΔHvH ([2]; no GuHCl): 83.8 kcal/mol | Tm (Cp, max) ([2]; no GuHCl, 50 mM phosphate): 67.2 °C | ΔH ([3]; 0.0M NaCl): 72.9 kcal/mol | ΔHvH ([3]; 0.0M NaCl): 136.4 kcal/mol | Tm (Cp, max) ([3]; 0.0M NaCl, 20 μg/ml): 47.1 °C | Tm (Cp, max) ([3]; 0.25M NaCl): 46.1 °C | ΔH ([3]; 0.25M NaCl): not present | Tm (Cp, max) ([3]; 0.50M NaCl): 41.6 °C | ΔH ([3]; 0.50M NaCl): not present | Tm (Cp, max) ([3]; 0.75M NaCl): 27.5 °C | ΔH ([3]; 0.75M NaCl): not present | Tm (Cp, max) ([3]; 1.0M NaCl): no transition observed
Molecule: Heparin

Tm of α-interferon (α-interferon [4]; perturbant 5 mg/ml): 63.00 °C | ΔH of α-interferon (α-interferon [4]; perturbant 5 mg/ml): 42.299 kcal/mol | Tm of α-interferon (α-interferon [4]; perturbant 10 mg/ml): 59.49 °C | ΔH of α-interferon (α-interferon [4]; perturbant 10 mg/ml): 43.058 kcal/mol | Tm of α-interferon (α-interferon [4]; perturbant 25 mg/ml): 52.79 °C | ΔH of α-interferon (α-interferon [4]; perturbant 25 mg/ml): 27.237 kcal/mol | ΔH of α-interferon (α-interferon [4]; perturbant 100 mg/ml): 0 kcal/mol | result of complexing with α-interferon at pH 3 (α-interferon [5]): negative enthalpy | ΔH (1) (α-interferon [5]; pH 7.2): 58.5932 cal/Mole perturbant | n (1), # of complexed perturbant molecules (α-interferon [5]; pH 7.2): 121.0354 | Kd (α-interferon [5]; pH 7.2, read-out: binding constant (Kd)): ~1000 µM | Kd (α-interferon [5]; pH 7.2, read-out: log 10 Ka (1), Ka=association constant (converted)): 2990 µM
Molecule: O=C(NC(C(=O)O)c1ccccc1)C1CCCCC1 (stereo not drawn) [perturbant of Example 22, cyclohexanoyl phenylglycine]

Kd (rhGH; pH 4.0): 0.00161 µM | ΔH (rhGH; pH 4.0): -35.6 kcal/mol | ΔS (rhGH; pH 4.0): −90.0 eu | Kd (rhGH; pH 7.5): 1.11 µM | ΔH (rhGH; pH 7.5): +2.1 kcal/mol | ΔS (rhGH; pH 7.5): +35.0 eu
Molecule: O=C(N[C@@H](Cc1ccccc1)C(=O)O)c1ccccc1O [B, salicyloyl modified L-phenylalanine]
